# Several values for one entry are separate records, joined by “and”; a condition that tells them apart may be missing. Equal entries are not always repeated. Entries after “also recorded” stand apart in the source; their conditions may differ. Where two headings read alike, the source gives them in different places.
# Assays:
# acrosin = conditions: correlated with contraceptive effect; cited from earlier work
# [1] = cited from earlier work; for potency as experimental vaginal contraceptive, fold more potent than nonoxynol-9: versus nonoxynol-9
# MT-4 T lymphocytes [2] = assay: in vitro
# Description: (§1) The % values on the right axis were positioned in a fashion that allows estimation of inhibitory effect of the test drug as a function of acetaminophen concentration plotted on the horizontal axis.
# (§2) The % values on the right axis were positioned in a fashion that allows estimation of inhibitory effect of the test drug as a function of AGB concentration plotted on the horizontal axis.
# (§3) The % values on the right axis were positioned in a fashion that allows estimation of the inhibitory effect of test drug as a function of EGB concentration plotted on the horizontal axis.
# (§4) The toxicity of compounds was tested as follows. MT-4 lymphocytes were grown in the presence or absence of log10 dilutions of test compounds for two days. The cells were then exposed for 4 hours to the preparation of XTT tetrasolium salt (Sigma, St Louis, Mo.) containing phenazine methosulfate (Aldrich, Milwaukee, Wis.). The viability of drug-exposed cells was determined based on activity of mitochondrial […] of MT-4 converting XTT into color-dense formazan. Optical density was then determined in a plate reader at […] with reference filter at […] and compared to absorbance values of the control cells cultured without drugs. XTT test was also confirmed by trypan blue exclusion test based on the principle that nuclei of dead cells are stained blue.
# (§5) The serial ten-fold dilutions of AGB, virus, and cells were left without washing in the culture until tested for HIV production 2 days later. Topical contraceptive agents nonoxynol-9 and gramicidin were used as controls.
# (§6) The serial ten-fold dilutions of EGB, virus, and cells were left without washing in the culture until tested for HIV production 2 days later. Topical contraceptive agents nonoxynol-9 and gramicidin were used as controls.
# HIV [3] = assay: HIV infection of MT-4 T lymphocytes, p24 ELISA of culture supernatant on day 2; format: cell-based; conditions: for IC100 / IC50: Human immunodeficiency virus 1, T-lymphocyte; for IC100: 48 h; for IC50 / anti-HIV activity (in words): MT-4, p24
# Experimental: as §2, §3
# Indicator MT-4 T lymphocytes (10^5 cells/ml) were plated in triplicates in 96-well culture plates in the presence of serial 10-fold molar dilutions of test compound. Each culture well contained 180 μl of RPMI 1640 culture medium with 10% FBS, L-glutamine, penicillin and streptomycin. Immediately thereafter MT-4 lymphocytes were exposed to 20 μl of viral inoculum corresponding to 100 infectious units per lymphocyte as determined by limiting dilution assay. Two days later--the minimal time period corresponding to full replication cycle of HIV--the culture supernatants were collected and dose-response to drugs was quantitated by measuring the levels of cell-free p24 antigen. The amount of released virus was calculated by comparing the optical density of experimental values from treated wells to commercial p24 standards (Coulter, Hialeah, Fla.).
# as §5, §6
# human spermatozoa = conditions: in vitro with human spermatozoa and in animal studies; cited from earlier work
# [4] = cited from earlier work
# in vitro = conditions: human, mt-4 cells
# Description: as §1, §2, §3, §4, §5, §6
# MT-4 T lymphocytes [5] = format: cell-based
# Experimental: The toxicity of compounds was tested as follows.
# HIV [6] = conditions: cited from earlier work
# [7] = Table 1, MT-4, 2 days, read-out: IC100 (approximate order of anti-HIV concentration)
# [8] = p24 ELISA, MT-4 supernatant, day 2, read-out: Complete inhibition of HIV replication, concentration
# [9] = background, earlier work of inventor
compound,measurement,setting,value
"CC(=O)Nc1ccc(OC(=O)c2ccc(NC(=N)N)cc2)cc1 [AGB, 4'-acetamidophenyl 4-guanidinobenzoate]",acrosin activity (in words),acrosin,inhibitory action on acrosin activity
same,toxicity and irritation versus nonoxynol-9 (in words),[1],far less toxic and irritating
same,"potency as experimental vaginal contraceptive, fold more potent than nonoxynol-9",[1],up to 100 fold
same,CC100 (cytotoxicity),"MT-4 T lymphocytes [2]; human, 2880 min",10000 µg
same,"antiviral potency relative to nonoxynol-9, times less potent",HIV [3],10 times
same,IC100,HIV [3]; [7],100 µg/mL
same,IC100,HIV [3]; [8],100 µg/mL
same,IC50,"HIV [3]; read-out: anti-HIV activity in vitro, IC50",14 µg/mL
same,"SI, selectivity index, ratio between CC100 and IC100 values","HIV [3]; Table 1, CC100/IC100",100
same,optimal concentration required to inhibit both acrosome reaction and sperm motility,human spermatozoa,100 µg/mL
"CC(=O)Nc1ccc(O)cc1 [Acetaminophen, acetaminophen]",anti-inflammatory activity (in words),"[4]; human, in vivo",no anti-inflammatory activity
same,toxicity / hepatotoxicity (in words),[4]; overdose or consumption with alcohol,can cause hepatotoxicity
same,selectivity ratio,in vitro,≤ 75
same,toxicity at tested concentrations (in words),MT-4 T lymphocytes [2],has not shown any toxicity at all tested concentrations
same,toxic dose-effect by XTT formazan OD (in words),MT-4 T lymphocytes [2]; up to highest tested dose containing 0.5% of ethanol,no observable toxic dose-effect
same,IC100,HIV [3]; [7],150 µg/mL
same,IC100,HIV [3]; [8],150 µg/mL and 1000 µM
same,IC50,"HIV [3]; read-out: inhibitory concentration (IC50), 50% inhibition of de novo HIV infection",21 µg/mL
same,anti-HIV activity (in words),HIV [3],antivirally active
"CCOC(=O)c1ccc(OC(=O)c2ccc(NC(=N)N)cc2)cc1 [EGB, 4'-carboethoxyphenyl 4-guanidinobenzoate]",acrosin activity (in words),acrosin,inhibitory action on acrosin activity
same,viability of MT-4 lymphocytes by trypan blue exclusion (in words),MT-4 T lymphocytes [5],death of MT-4 lymphocytes
same,toxicity and irritation versus nonoxynol-9 (in words),[1],far less toxic and irritating
same,"potency as experimental vaginal contraceptive, fold more potent than nonoxynol-9",[1],up to 100 fold
same,CC100 (cytotoxicity),"MT-4 T lymphocytes [2]; human, 2880 min",100 µg
same,"SI, selectivity index, ratio between CC100 and IC100 values",HIV [3],1
same,IC100,HIV [3]; [7],100 µg/mL
same,anti-HIV activity (in words),HIV [3],antiviral activity was not specific and due to the death of host lymphocytes; also recorded: no effect on HIV infection at doses that were not toxic; also recorded: has not shown specific anti-HIV activity
CC(C)C[C@H](NC(=O)[C@@H](O)[C@H](N)Cc1ccccc1)C(=O)O [bestatin],anti-HIV effect / inhibition of HIV replication (in words),HIV [6]; [9],anti-HIV effect
CN/C(=N/CCSCc1nc[nH]c1C)NC#N [cimetidine],anti-HIV effect / inhibition of HIV replication (in words),HIV [6],able to inhibit HIV replication without producing significant cytotoxicity
C[C@@H]1C[C@H]2[C@@H]3CCC4=CC(=O)C=C[C@]4(C)[C@@]3(F)[C@@H](O)C[C@]2(C)[C@@]1(O)C(=O)CO [dexamethasone],anti-HIV effect / inhibition of HIV replication (in words),HIV [6]; [9],anti-HIV effect
COc1ccc2c(c1)c(CC(=O)O)c(C)n2C(=O)c1ccc(Cl)cc1 [indomethacin],relative anti-HIV potency (in words),HIV [6]; indomethacin versus aspirin,more potent than aspirin
c1ccc([C@H]2CN3CCSC3=N2)cc1 [levamisole],anti-HIV effect / inhibition of HIV replication (in words),HIV [6],anti-HIV effect
CC(=O)[C@H]1CC[C@H]2[C@@H]3CCC4=CC(=O)CC[C@]4(C)[C@H]3CC[C@]12C [progesterone],anti-HIV effect / inhibition of HIV replication (in words),HIV [6]; [9],anti-HIV effect
CC(=O)CC(c1ccccc1)c1c(O)c2ccccc2oc1=O (stereo not drawn) [warfarin],anti-HIV effect / inhibition of HIV replication (in words),HIV [6]; [9],anti-HIV effect
estrogen,anti-HIV effect / inhibition of HIV replication (in words),HIV [6]; [9],anti-HIV effect
gramicidin,anti-HIV effect / inhibition of HIV replication (in words),HIV [6]; [9],able to inhibit HIV replication without producing significant cytotoxicity
same,CC100 (cytotoxicity),"MT-4 T lymphocytes [2]; Table 1, MT-4, 2 days",10 µg
same,toxicity relative to AGB (in words),MT-4 T lymphocytes [2]; dose compared with AGB,toxic at doses that are a thousand-fold lower than AGB
same,IC100 (approximate order of anti-HIV concentration),"HIV [3]; Table 1, MT-4, 2 days",10 ng
nonoxynol-9,local toxicity (in words),"[4]; spermicidal agent, effective concentration",local toxicity of this agent is incompatible with its antiviral activity when used at an effective concentration
same,CC100 (cytotoxicity),"MT-4 T lymphocytes [2]; Table 1, MT-4, 2 days",10 µg
same,IC100 (approximate order of anti-HIV concentration),"HIV [3]; Table 1, MT-4, 2 days",10000 ng

# From patent US5837729A, “Methods for treating and preventing HIV infection using acetaminophen and derivatives thereof” (priority 1996, dated 1998)
